Test results reported in patent US8030354B2, “Substituted biphenyl GPR40 modulators” (Amgen Inc., priority 2007, dated 2011).
pEC50: −log10 of the molar value.

Tests used:
GPR40 [1] = biological target: T1, GPR40 (Homo sapiens, UniProt O14842); experiment: Cell-based aequorin assay (CHO cells stably expressing GPR40 and aequorin); parameters: expressed in transfected cells; host or cells: CHO cells stably transfected with GPR40 and aequorin; settings: activation of human GPR40, CHO cells, 0.01% HSA
T1 sequence (O14842 whole entry): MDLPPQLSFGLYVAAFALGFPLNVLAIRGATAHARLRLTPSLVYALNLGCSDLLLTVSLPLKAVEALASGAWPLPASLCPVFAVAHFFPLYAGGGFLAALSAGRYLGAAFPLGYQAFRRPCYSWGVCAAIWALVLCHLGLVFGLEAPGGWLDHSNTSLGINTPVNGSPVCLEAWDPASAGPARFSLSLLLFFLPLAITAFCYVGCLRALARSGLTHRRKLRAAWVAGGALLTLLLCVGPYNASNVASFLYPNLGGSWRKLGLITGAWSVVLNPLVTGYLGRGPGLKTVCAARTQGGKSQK
Outline: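 CHO cells stably co-expressing GPR40 and aequorin, loaded with coelenterazine (1 ug/mL, 2 h, room temperature) in H/HBSS with 20 mM Hepes and 0.01% fatty acid-free HSA. Serially diluted compounds added; luminescence recorded over 20 s. EC50 from dose-response of maximum relative light units.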

GPR40 [2] = biological target: T1, GPR40; experiment: Inositol phosphate accumulation assay (A9_GPR40 cells); format: cell-based; parameters: expressed in transfected cells; host or cells: CHO cells stably transfected with GPR40 and aequorin; settings: inositol phosphate assay, A9_GPR40 cells, 1 hour; read-out: IP3 EC50
Outline: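 [^3H] inositol phosphate accumulation was measured by SPA after 1 h compound exposure at 37° C in HBSS/10 mM LiCl containing HSA, ending with a 20 mM formic acid quench. The GPR40-transfected A9 cells had first been labelled overnight (16 h) with 1 μCi/mL ^3H-inositol.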

Row | Structure (SMILES) | pEC50 (GPR40 [1]) | pEC50 (GPR40 [2])
1 | CC1(C)CCC=C1c1cc(COc2cccc([C@@H](CC(=O)O)C3CC3)c2F)ccc1-c1cc(C(F)F)ccc1F (single isomer, unassigned) [Example 83.12, (3S)-3-Cyclopropyl-3-(3-(((5′-(difluoromethyl)-2-(5,5-dimethyl-1-cyclopenten-1-yl)-2′-fluoro-1,1′-biphenyl-4-yl)methyl)oxy)-2-fluorophenyl)propanoic acid or (3R)-3-cyclopropyl-3-(3-(((5′-(difluoromethyl)-2-(5,5-dimethyl-1-cyclopenten-1-yl)-2′-fluoro-1,1′-biphenyl-4-yl)methyl)oxy)-2-fluorophenyl)propanoic acid] | 6.00 to 7.00 | 7.00 to 8.00
2 | COc1ccc(F)c(-c2c(F)cc(COc3cccc([C@@H](CC(=O)O)C4CC4)c3F)cc2[C@H]2CCCC2(C)C)c1 (single isomer, unassigned) [Example 83.20] | 6.00 to 7.00 | > 8.00
3 | COc1ccc(F)c(-c2c(F)cc(COc3cccc([C@@H](CC(=O)O)C4CC4)c3F)cc2[C@@H]2CCCC2(C)C)c1 (single isomer, unassigned) [Example 83.24] | 6.00 to 7.00 | 7.00 to 8.00
4 | CC1(C)CCC[C@@H]1c1cc(COc2cccc([C@@H](CC(=O)O)C3CC3)c2F)ccc1-c1cc(F)ccc1F (single isomer, unassigned) [Example 83.25] | 6.00 to 7.00 | 7.00 to 8.00
5 | CCc1cccc(-c2ccc(COc3cccc([C@@H](CC(=O)O)C4CC4)c3F)cc2[C@H]2CCCC2(C)C)c1 (single isomer, unassigned) [Example 83.28] | 6.00 to 7.00 | 7.00 to 8.00
6 | COc1cc(-c2cc(F)c(COc3cccc([C@@H](CC(=O)O)C4CC4)c3F)cc2[C@H]2CCCC2(C)C)c(F)cn1 (single isomer, unassigned) [Example 83.34] | 7.00 to 8.00 | > 8.00
7 | COc1ccc(F)c(-c2cc(F)c(COc3cccc(C(CC(=O)O)CC4CC4)c3F)cc2C2CCCC2(C)C)c1 (single isomer, unassigned) [Example 84.4] | 6.00 to 7.00 | > 8.00
8 | COc1cc(-c2ccc(COc3cccc(C(CC(=O)O)CC4CC4)c3F)cc2C2CCCC2(C)C)c(F)cn1 (single isomer, unassigned) [Example 84.8] | 6.00 to 7.00 | > 8.00
9 | COc1ccc(F)c(-c2ccc(COc3cccc(C(C)(C)CC(=O)O)c3)cc2C2CCCC2(C)C)c1 (single isomer, unassigned) [Example 85.3, 3-(3-(((2-((1R)-2,2-Dimethylcyclopentyl)-2′-fluoro-5′-(methyloxy)-1,1′-biphenyl-4-yl)methyl)oxy)phenyl)-3-methylbutanoic acid or 3-(3-(((2-((1S)-2,2-dimethylcyclopentyl)-2′-fluoro-5′-(methyloxy)-1,1′-biphenyl-4-yl)methyl)oxy)phenyl)-3-methylbutanoic acid] | 6.00 to 7.00 | 7.00 to 8.00
10 | COc1cc(-c2ccc(COc3cccc(C(C)(C)CC(=O)O)c3)cc2C2CCCC2(C)C)c(F)cn1 (single isomer, unassigned) [Example 85.4, 3-{3-[3-((S)-2,2-Dimethyl-cyclopentyl)-4-(5-fluoro-2-methoxy-pyridin-4-yl)-benzyloxy]-phenyl}-3-methyl-butyric acid or 3-{3-[3-((R)-2,2-dimethyl-cyclopentyl)-4-(5-fluoro-2-methoxy-pyridin-4-yl)-benzyloxy]-phenyl}-3-methyl-butyric acid] | 6.00 to 7.00 | 7.00 to 8.00

Second part, the compound after the results:

Row | pEC50 (GPR40 [1]) | pEC50 (GPR40 [2]) | Structure (SMILES)
11 | 6.00 to 7.00 | > 8.00 | COc1ccc(F)c(-c2ccc(COc3cccc(C(CC(=O)O)C4CC4)c3F)cc2C2=CCCC2(C)C)c1 (single isomer, unassigned) [Example 83.14, (3S)-3-Cyclopropyl-3-(3-(((2-(5,5-dimethyl-1-cyclopenten-1-yl)-2′-fluoro-5′-(methyloxy)-1,1′-biphenyl-4-yl)methyl)oxy)-2-fluorophenyl)propanoic acid or (3R)-3-cyclopropyl-3-(3-(((2-(5,5-dimethyl-1-cyclopenten-1-yl)-2′-fluoro-5′-(methyloxy)-1,1′-biphenyl-4-yl)methyl)oxy)-2-fluorophenyl)propanoic acid]
12 | 6.00 to 7.00 | > 8.00 | COc1ccc(F)c(-c2ccc(COc3cccc(C(CC(=O)O)C4CC4)c3F)cc2CC(C)(C)C)c1 (single isomer, unassigned) [Example 83.15, (3S)-3-Cyclopropyl-3-(3-(((2-(2,2-dimethylpropyl)-2′-fluoro-5′-(methyloxy)-1,1′-biphenyl-4-yl)methyl)oxy)-2-fluorophenyl)propanoic acid or (3R)-3-cyclopropyl-3-(3-(((2-(2,2-dimethylpropyl)-2′-fluoro-5′-(methyloxy)-1,1′-biphenyl-4-yl)methyl)oxy)-2-fluorophenyl)propanoic acid]
13 | 6.00 to 7.00 | 7.00 to 8.00 | COc1ccc(F)c(-c2cc(F)c(COc3cccc(C(CC(=O)O)C4CC4)c3F)cc2C2=CCCC2(C)C)c1 (single isomer, unassigned) [Example 83.16, (3S)-3-Cyclopropyl-3-(3-(((2-(5,5-dimethyl-1-cyclopenten-1-yl)-2′,5-difluoro-5′-(methyloxy)-1,1′-biphenyl-4-yl)methyl)oxy)-2-fluorophenyl)propanoic acid or (3R)-3-cyclopropyl-3-(3-(((2-(5,5-dimethyl-1-cyclopenten-1-yl)-2′,5-difluoro-5′-(methyloxy)-1,1′-biphenyl-4-yl)methyl)oxy)-2-fluorophenyl)propanoic acid]
14 | 7.00 to 8.00 | > 8.00 | COc1cc(-c2ccc(COc3cccc([C@@H](CC(=O)O)C4CC4)c3F)cc2[C@@H](OC)C(C)(C)C)c(F)cn1 (single isomer, unassigned) [Example 83.21]
15 | 7.00 to 8.00 | > 8.00 | COc1ccc(F)c(-c2ccc(COc3cccc([C@@H](CC(=O)O)C4CC4)c3F)cc2[C@@H](OC)C2(C)CC2)c1 (single isomer, unassigned) [Example 83.22]
16 | 6.00 to 7.00 | 7.00 to 8.00 | COc1ccc(F)c(-c2ccc(COc3cccc([C@@H](CC(=O)O)C4CC4)c3F)cc2[C@H](OC)C(C)(C)OC)c1 (single isomer, unassigned) [Example 83.26]
17 | 6.00 to 7.00 | 7.00 to 8.00 | CO[C@H](c1cc(COc2cccc([C@@H](CC(=O)O)C3CC3)c2F)ccc1-c1cc(F)ccc1F)C(C)(C)C (single isomer, unassigned) [Example 83.27]
18 | 5.00 to 6.00 | 6.00 to 7.00 | COc1ccc(F)c(-c2ccc(COc3cccc(C(CC(=O)O)C4CC4)c3F)cc2CN2CCCCCC2)c1 (single isomer, unassigned) [Example 83.29, (3S)-3-(3-(((2-(1-Azepanylmethyl)-2′-fluoro-5′-(methyloxy)-1,1′-biphenyl-4-yl)methyl)oxy)-2-fluorophenyl)-3-cyclopropylpropanoic acid or (3R)-3-(3-(((2-(1-Azepanylmethyl)-2′-fluoro-5′-(methyloxy)-1,1′-biphenyl-4-yl)methyl)oxy)-2-fluorophenyl)-3-cyclopropylpropanoic acid]
19 | 6.00 to 7.00 | > 8.00 | COc1ccc(F)c(-c2ccc(COc3cccc(C(CC(=O)O)CC4CC4)c3F)cc2C2CCCC2(C)C)c1 (single isomer, unassigned) [Example 84.1]
20 | 6.00 to 7.00 | > 8.00 | COc1ccc(F)c(-c2ccc(COc3cccc(C(CC(=O)O)CC4CC4)c3F)cc2C(OC)C(C)(C)C)c1 (single isomer, unassigned) [Example 84.2]
21 | 6.00 to 7.00 | > 8.00 | COc1ccc(F)c(-c2ccc(COc3cccc(C(CC(=O)O)CC4CC4)c3F)cc2C2CCCC2(C)C)c1 (single isomer, unassigned) [Example 84.3]
22 | 6.00 to 7.00 | 7.00 to 8.00 | COc1ccc(F)c(-c2ccc(COc3cccc(C(CC(=O)O)CC4CC4)c3F)cc2C2=CCCC2(C)C)c1 (single isomer, unassigned) [Example 84.5, (3R)-4-Cyclopropyl-3-(3-(((2-(5,5-dimethyl-1-cyclopenten-1-yl)-2′-fluoro-5′-(methyloxy)-1,1′-biphenyl-4-yl)methyl)oxy)-2-fluorophenyl)butanoic acid or (3S)-4-cyclopropyl-3-(3-(((2-(5,5-dimethyl-1-cyclopenten-1-yl)-2′-fluoro-5′-(methyloxy)-1,1′-biphenyl-4-yl)methyl)oxy)-2-fluorophenyl)butanoic acid]
23 | 6.00 to 7.00 | > 8.00 | COc1ccc(F)c(-c2ccc(COc3cccc(C(CC(=O)O)CC4CC4)c3F)cc2C2CCCCC2(C)C)c1 (single isomer, unassigned) [Example 84.6]
24 | 7.00 to 8.00 | > 8.00 | COc1ccc(F)c(-c2ccc(COc3cccc(C(CC(=O)O)CC4CC4)c3F)cc2C(F)C(C)(C)C)c1 (single isomer, unassigned) [Example 84.7]
25 | 6.00 to 7.00 | > 8.00 | COc1cc(-c2ccc(COc3cccc(C(CC(=O)O)CC4CC4)c3F)cc2C(OC)C(C)(C)C)c(F)cn1 (single isomer, unassigned) [Example 84.9]
